≈ marks a conversion by molar mass, not a printed value.
What was measured:
[1] = Evaluation of sensitivity (colour development with glucose, GDH-FAD, m-PMS, nickel; gradient versus WST-4); conditions: gradientsample/gradientWST-4; for Sensitivity, comparison with Comparative Example 5 (rating): absorbance at λmax versus glucose concentration, cell length 50 μm
Procedure: Separately, 100 μL of RO water was added to 7 mg of a glucose dehydrogenase that uses flavin adenine dinucleotide (FAD) as a coenzyme (GDH-FAD) (manufactured by TOYOBO CO., LTD., product No.: GLD-351), the enzyme was dissolved, and thus a GDH solution was produced. Furthermore, 200 μL of RO water was added to 3.5 mg of 1-methoxy-5-methylphenazium methyl sulfate (m-PMS) (manufactured by DOJINDO LABORATORIES), and the compound was dissolved therein. Thus, an s-PMS solution was produced. 1 mL of RO water was added to 129 mg of nickel chloride to dissolve the salt, and thus a nickel solution was produced.
40 μL of the reaction solution was added to 10 μL each of an aqueous glucose solution at a concentration of 125 mg/dL, an aqueous glucose solution at a concentration of 250 mg/dL, and an aqueous glucose solution at a concentration of 1,000 mg/dL, and the mixtures were allowed to develop color. The spectra were measured with a spectrophotometer (measurement cell length: 50 μm) (n=1). […] Thus, the gradient (gradientsample) was determined.
40 μL of the control reaction solution was added to 10 μL each of an aqueous glucose solution at a concentration of 125 mg/dL, an aqueous glucose solution at a concentration of 250 mg/dL, and an aqueous glucose solution at a concentration of 1,000 mg/dL, and the mixtures were allowed to develop color. The spectra were measured with a spectrophotometer (measurement cell length: 50 μm) (n=1). For each of the spectra, the absorbance at 650 nm, which is the measurement wavelength (λmax) of WST-4, was measured, and the glucose concentration in the colored solution and the absorbance were plotted on the horizontal axis and the vertical axis, respectively. Thus, the gradient (gradientWST-4) was determined.
FIG. 2 is a graph showing the relationship between the glucose concentration and the absorbance of produced formazan in relation to the tetrazolium compound 1 and WST-4. […] Meanwhile, the gradient serves as an index for the color development intensity of each compound. Therefore, when the value obtained by dividing the gradientsample by the gradientWST-4 (gradientsample/gradientWST-4) is greater than one-fold, it is implied that the intensity of color development on the longer wavelength side is higher compared to WST-4, which is a well-known indicator reagent.

[2] = Maximum absorption wavelength (λmax) of formazan-nickel chelate by spectrophotometer; type: physicochemical; conditions: chelate of formazan and nickel ion, aqueous MOPS, cell length 10 mm, n=1
Procedure: 10 mM aqueous solution of MOPS was added to each of the formazan compounds so as to obtain a final concentration of […], and thereby 100 μL of a sample was produced. At this time, all of the samples were red-brown in color. Apart from this, a 1 M aqueous solution of nickel ion was produced.
For mixed solutions of various compounds in an aqueous solution of formazan and an aqueous solution of nickel, the spectra were measured with a spectrophotometer (measurement cell length: 10 mm) (n=1). Based on each of the spectra, the maximum absorption wavelength (λmax) (nm) of each of the compounds in formazan was determined. From FIG. 1, it is understood that the maximum absorption wavelength (λmax) of the chelate compound of formazan compound 1 and nickel ion is 630 nm.
The absorbance at the maximum absorption wavelength is denoted as 100%.

[3] = Evaluation of water-solubility (visual check for precipitate); type: physicochemical; conditions: RO water / 0.5 M MOPS solution (1:1), aqueous buffer, thermodynamic from solid; RO water and 0.5 M MOPS pH 7.2; 200, 100, 20 mM; stirred 5 minutes
Procedure: After the mixture was stirred for 5 minutes, a precipitate was checked by visual inspection. […] After the mixture was stirred for 5 minutes, a precipitate was checked by visual inspection. […] After the mixture was stirred for 5 minutes, a precipitate was checked by visual inspection.

## COc1ccc2nc(-n3nc(-c4ccc(O)cc4S(=O)(=O)[O-])n[n+]3-c3cc(S(=O)(=O)[O-])ccc3OC)sc2c1.[Na+] [Example 5]
[1]
  Sensitivity, comparison with Comparative Example 5 (rating): ◯ (the value of the ratio gradientsample/gradientWST-4 was 1.5 or greater and less than 2)
[2]
  Maximum absorption wavelength (λmax): 630 nm
[3]
  solubility at 5 min: 100 to 200 mM

## COc1ccc2nc(-n3nc(-c4ccc(S(=O)(=O)O)cc4S(=O)(=O)O)n[n+]3-c3cc(S(=O)(=O)[O-])c([N+](=O)[O-])cc3OC)sc2c1 [Example 3]
[1]
  Sensitivity, comparison with Comparative Example 5 (rating): ◯ (the value of the ratio gradientsample/gradientWST-4 was 1.5 or greater and less than 2)
[2]
  Maximum absorption wavelength (λmax): 630 nm
[3]
  solubility at 5 min: > 200 mM

## COc1ccc(-[n+]2nc(-c3ccc(S(=O)(=O)O)cc3S(=O)(=O)O)nn2-c2nc3cc4c(cc3s2)OCO4)cc1S(=O)(=O)[O-] [Example 17]
[1]
  Sensitivity, comparison with Comparative Example 5 (ratio): 2.4 times
  Sensitivity, comparison with Comparative Example 5 (rating): ⊙ (gradientsample/gradientWST-4) was 2 or greater)
[2]
  Maximum absorption wavelength (λmax): 650 nm
[3]
  solubility at 5 min: > 200 mM

## COc1ccc2nc(-n3nc(-c4ccc(S(=O)(=O)[O-])cc4S(=O)(=O)[O-])n[n+]3-c3ccc([N+](=O)[O-])cc3OC)sc2c1.[Na+] [Example 4]
[1]
  Sensitivity, comparison with Comparative Example 5 (rating): ⊙ (gradientsample/gradientWST-4) was 2 or greater)
[2]
  Maximum absorption wavelength (λmax): 650 nm
[3]
  solubility at 5 min: 20 to 100 mM

## COc1ccc2nc(-n3nc(-c4ccc(O)c(S(=O)(=O)[O-])c4)n[n+]3-c3cc(S(=O)(=O)[O-])ccc3OC)sc2c1.[Na+] [Example 6]
[1]
  Sensitivity, comparison with Comparative Example 5 (rating): ⊙ (gradientsample/gradientWST-4) was 2 or greater)
[2]
  Maximum absorption wavelength (λmax): 650 nm
[3]
  solubility at 5 min: 20 to 100 mM

## COc1ccc2nc(-n3nc(-c4ccc(S(=O)(=O)O)cc4S(=O)(=O)[O-])n[n+]3-c3ccc(C(=O)O)cc3OC)sc2c1 [Example 10]
[1]
  Sensitivity, comparison with Comparative Example 5 (rating): ◯ (the value of the ratio gradientsample/gradientWST-4 was 1.5 or greater and less than 2)
[2]
  Maximum absorption wavelength (λmax): 620 nm
[3]
  solubility at 5 min: > 200 mM

## CCOc1ccc2nc(-n3nc(-c4ccc(S(=O)(=O)O)cc4S(=O)(=O)O)n[n+]3-c3ccc(OC)c(S(=O)(=O)[O-])c3)sc2c1 [Example 20]
[1]
  Sensitivity, comparison with Comparative Example 5 (ratio): 2.4 times
  Sensitivity, comparison with Comparative Example 5 (rating): ⊙ (gradientsample/gradientWST-4) was 2 or greater)
[2]
  Maximum absorption wavelength (λmax): 630 nm
[3]
  solubility at 5 min: > 200 mM

## COc1ccc2nc(-n3nc(-c4ccc(S(=O)(=O)O)cc4S(=O)(=O)[O-])n[n+]3-c3ccc(OC)c(C(=O)O)c3)sc2c1 [Example 12]
[1]
  Sensitivity, comparison with Comparative Example 5 (ratio): 2.4 times
  Sensitivity, comparison with Comparative Example 5 (rating): ⊙ (gradientsample/gradientWST-4) was 2 or greater)
[2]
  Maximum absorption wavelength (λmax): 630 nm
[3]
  solubility at 5 min: > 200 mM

## COc1ccc(-[n+]2nc(-c3ccc(S(=O)(=O)O)cc3S(=O)(=O)O)nn2-c2nc3cc4c(cc3s2)OCCO4)cc1S(=O)(=O)[O-] [Example 19]
[1]
  Sensitivity, comparison with Comparative Example 5 (ratio): 2.4 times
  Sensitivity, comparison with Comparative Example 5 (rating): ⊙ (gradientsample/gradientWST-4) was 2 or greater)
[2]
  Maximum absorption wavelength (λmax): 640 nm
[3]
  solubility at 5 min: > 200 mM

## COc1ccc2nc(-n3nc(-c4ccccc4S(=O)(=O)[O-])n[n+]3-c3ccc(S(=O)(=O)[O-])cc3)sc2c1.[Na+] [Example 7]
[1]
  Sensitivity, comparison with Comparative Example 5 (rating): ⊙ (gradientsample/gradientWST-4) was 2 or greater)
[2]
  Maximum absorption wavelength (λmax): 645 nm
[3]
  solubility at 5 min: 100 to 200 mM

## COc1ccc(S(=O)(=O)O)cc1-[n+]1nc(-c2ccc(S(=O)(=O)O)cc2S(=O)(=O)[O-])nn1-c1nc2ccccc2s1 [Comparative Example 1, reference compound]
[1]
  Sensitivity, comparison with Comparative Example 5 (rating): Δ (the value of the ratio gradientsample/gradientWST-4 was greater than 1 and less than 1.5)
[2]
  Maximum absorption wavelength (λmax): 580 nm
[3]
  solubility at 5 min: 100 to 200 mM (≈ 62.6 to 125 mg/mL)

## COc1ccc2nc(-n3nc(-c4cc(S(=O)(=O)O)cc(S(=O)(=O)O)c4)n[n+]3-c3ccc(OC)c(S(=O)(=O)[O-])c3)sc2c1 [Example 9]
[1]
  Sensitivity, comparison with Comparative Example 5 (rating): ◯ (the value of the ratio gradientsample/gradientWST-4 was 1.5 or greater and less than 2)
[2]
  Maximum absorption wavelength (λmax): 640 nm
[3]
  solubility at 5 min: > 200 mM

## COc1ccc2nc(-n3nc(-c4cc(S(=O)(=O)[O-])cc(S(=O)(=O)O)c4)n[n+]3-c3cc(S(=O)(=O)O)ccc3OC)sc2c1 [Example 8]
[1]
  Sensitivity, comparison with Comparative Example 5 (rating): ◯ (the value of the ratio gradientsample/gradientWST-4 was 1.5 or greater and less than 2)
[2]
  Maximum absorption wavelength (λmax): 620 nm
[3]
  solubility at 5 min: > 200 mM

## COc1ccc2nc(-n3nc(-c4cc(S(=O)(=O)[O-])cc(S(=O)(=O)O)c4)n[n+]3-c3cc(C(=O)O)ccc3OC)sc2c1 [Example 11]
[1]
  Sensitivity, comparison with Comparative Example 5 (rating): ◯ (the value of the ratio gradientsample/gradientWST-4 was 1.5 or greater and less than 2)
[2]
  Maximum absorption wavelength (λmax): 605 nm
[3]
  solubility at 5 min: > 200 mM

## COc1ccc(S(=O)(=O)O)cc1-[n+]1nc(-c2ccc(S(=O)(=O)O)cc2S(=O)(=O)[O-])nn1-c1nc2cc3c(cc2s1)OCO3 [Example 13]
[1]
  Sensitivity, comparison with Comparative Example 5 (ratio): 2.4 times
  Sensitivity, comparison with Comparative Example 5 (rating): ⊙ (gradientsample/gradientWST-4) was 2 or greater)
[2]
  Maximum absorption wavelength (λmax): 625 nm
[3]
  solubility at 5 min: > 200 mM

## COc1ccccc1-[n+]1nc(-c2ccc(S(=O)(=O)O)cc2S(=O)(=O)[O-])nn1-c1nc2ccccc2s1 [compound 4, reference compound]
[1]
  Sensitivity, comparison with Comparative Example 5 (rating): ⊙ (gradientsample/gradientWST-4) was 2 or greater)
[2]
  Maximum absorption wavelength (λmax): 580 nm
[3]
  solubility at 5 min: 100 to 200 mM (≈ 54.6 to 109 mg/mL)

## COc1ccc(S(=O)(=O)O)cc1-[n+]1nc(-c2ccc(S(=O)(=O)O)cc2S(=O)(=O)[O-])nn1-c1nc2cc3c(cc2s1)OCCO3 [Example 14]
[1]
  Sensitivity, comparison with Comparative Example 5 (ratio): 2.4 times
  Sensitivity, comparison with Comparative Example 5 (rating): ⊙ (gradientsample/gradientWST-4) was 2 or greater)
[2]
  Maximum absorption wavelength (λmax): 610 nm
[3]
  solubility at 5 min: > 200 mM

## COc1ccc2nc(-n3nc(-c4ccc(S(=O)(=O)O)cc4S(=O)(=O)[O-])n[n+]3-c3cc(S(=O)(=O)O)ccc3OC)sc2c1 [Example 2]
[1]
  Sensitivity, comparison with Comparative Example 5 (rating): ⊙ (gradientsample/gradientWST-4) was 2 or greater)
[2]
  Maximum absorption wavelength (λmax): 600 nm
[3]
  solubility at 5 min: > 200 mM
